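48-hour exposure; five concentrations; linearly interpolated endpoints. GI50 = concentration required for 50% inhibition of growth. TGI is the concentration that stops growth completely.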
Columns and labels:
Assay in all cases: NCI-60 cell line screen, 48 h
[1] = system: KM20L2 colon
[2] = system: DMS 114 small cell lung
[3] = system: LXFL 529 NSCLC
[4] = system: M19-MEL melanoma
[5] = system: SNB-78 CNS
[6] = system: DMS 273 small cell lung
[7] = system: T-47D breast
[8] = system: PC-3 prostate
[9] = system: MDA-MB-231 breast
[10] = system: DU-145 prostate
[11] = system: MDA-MB-435
[12] = system: BT-549 breast
[13] = system: MCF7 breast

| SMILES | TGI [1] | TGI [2] | TGI [3] | TGI [4] | TGI [5] | TGI [6] | also measured |
| --- | --- | --- | --- | --- | --- | --- | --- |
| C[Si](C)(C)/C=C\CCCN1C(=O)CCC1=O | > 100 µM | > 100 µM | > 100 µM | > 100 µM | > 100 µM | – | – |
| CC(C)Cc1ccc(C(C)/C=C2\CCC(CN3CCCC3)C2=O)cc1 (stereo not given) | 33.3 µM | 12.2 µM | 4.77 µM | 13.7 µM | 42.5 µM | 14.5 µM | – |
| S=P(c1ccccc1)(c1ccccc1)C1(C2(P(=S)(c3ccccc3)c3ccccc3)CC2)CC1 | > 100 µM | > 100 µM | > 100 µM | > 100 µM | > 100 µM | > 100 µM | – |
| O=C(O)CCSC(=O)Nc1cccc([N+](=O)[O-])c1 | – | > 100 µM | > 100 µM | – | > 100 µM | > 100 µM | – |
| Cc1ccc(NC(=O)CC/C(CC(=O)c2ccc(Cl)cc2)=N\NC(=O)C(=O)NN)cc1C | > 100 µM | > 100 µM | > 100 µM | > 100 µM | > 100 µM | > 100 µM | – |
| O=C(COc1ccc(Cl)cc1)N1N=C(c2ccc([N+](=O)[O-])o2)CC1(O)c1ccccc1 (stereo not given) | 30.4 µM | – | – | 10.1 µM | 37.6 µM | 18.6 µM | – |
| COc1cc([C@@H]2c3cc4c(cc3[C@@H](NCc3ccc(C#N)cc3)C3COC(=O)[C@@H]32)OCO4)cc(OC)c1O (stereo not given in full) | 3.99 µM | 4.98 µM | 50.2 µM | 19.5 µM | 53.2 µM | 2.49 µM | – |
| Cc1[nH]c2ccccc2c1C1CC(=O)NC1=O (stereo not given) | > 100 µM | > 100 µM | – | > 100 µM | > 100 µM | > 100 µM | – |
| C/C(=N\NS(=O)(=O)c1ccc(C)cc1)c1c(O)cc(C)oc1=O | > 100 µM | – | > 100 µM | > 100 µM | > 100 µM | – | – |
| O=C(O)CN(c1ccccc1)S(=O)(=O)c1ccc(Cl)cc1 | > 100 µM | – | > 100 µM | > 100 µM | – | > 100 µM | – |
| NNC(=O)CCC(=O)Nc1ccc(Cl)cc1Cl | > 100 µM | > 100 µM | > 100 µM | > 100 µM | > 100 µM | > 100 µM | – |
| COc1cc2ccc(/C(C)=N/OC(C)=O)cc2cc1OC | > 100 µM | > 100 µM | > 100 µM | > 100 µM | > 100 µM | > 100 µM | – |
| O=S1c2ccccc2N=C(c2ccc(Cl)cc2)CC1c1cccs1 (stereo not given) | 59.6 µM | 39.5 µM | – | 39 µM | > 100 µM | 28.2 µM | – |
| N#CC(C(=O)CCC(=O)Nc1ccc(Cl)cc1)c1ccccc1Cl (stereo not given) | > 100 µM | > 100 µM | > 100 µM | > 100 µM | > 100 µM | > 100 µM | – |
| COc1cc2ccnc3c2c(c1OC)CC1CC(O)C(OC)CC31 (stereo not given) | > 100 µM | > 100 µM | > 100 µM | > 100 µM | > 100 µM | > 100 µM | – |
| C[C@]12CC(C#N)C(=O)C(O)=C1CC[C@@H]1C2CC[C@@]2(C)C1CC[C@@H]2O (stereo not given in full) | > 100 µM | > 100 µM | > 100 µM | – | > 100 µM | > 100 µM | – |
| CC(=O)NC1C(OCc2ccccc2)OC(COC(=O)CCCCCNc2ccc([N+](=O)[O-])c3[nH]c4ccc(O)cc4c(=O)c23)C(O)C1OC(C)C(=O)N[C@@H](C)C(=O)N[C@H](CCC(=O)OCc1ccccc1)C(N)=O (stereo not given in full) | 0.893 µM | – | 3.85 µM | 33.3 µM | 16.3 µM | 6.03 µM | – |
| CC1=C(/C=C/C2=CC(=C\C(=O)O)/CC(C3=C(C)CCCC3(C)C)C2)C(C)(C)CCC1 (stereo not given) | – | 23 µM | 26.8 µM | 30.6 µM | 41.2 µM | 27.7 µM | – |
| CC1Cc2c(N)nc(N3CCOCC3)nc2NC1=O (stereo not given) | > 100 µM | > 100 µM | – | > 100 µM | – | > 100 µM | – |
| CC(C(=O)c1ccccc1)C1(O)C(=O)Nc2ccccc21 (stereo not given) | > 100 µM | > 100 µM | – | > 100 µM | > 100 µM | > 100 µM | – |
| CCCC1C(=O)C(CC)Cc2c(OC)ccc(OC)c21 (stereo not given) | – | – | > 100 µM | > 100 µM | > 100 µM | > 100 µM | – |
| CCN(CC)C(=O)CNC(=O)OC(C)(C)C | > 100 µM | > 100 µM | – | > 100 µM | > 100 µM | > 100 µM | – |
| O=C(N/C(=C\c1ccc([N+](=O)[O-])cc1)c1nc2ccc(Cl)cc2[nH]1)c1ccccc1 | 50.9 µM | > 100 µM | 70.7 µM | > 100 µM | > 100 µM | – | – |
| Cc1cccc2c1O/C(=C\c1ncc([N+](=O)[O-])n1C)C2=O | – | – | – | – | – | – | GI50 [7]: 9.23 µM; TGI [7]: 58.7 µM; GI50 [8]: 0.445 µM; GI50 [9]: 0.295 µM; TGI [9]: 1.51 µM; GI50 [10]: 0.238 µM; TGI [10]: 0.762 µM; GI50 [11]: 0.153 µM; TGI [11]: 0.35 µM; GI50 [12]: 0.275 µM; TGI [12]: 1.19 µM; GI50 [13]: 0.243 µM; TGI [13]: 3.27 µM |

Reference: PubChem BioAssay (NCI)
